From patent US20230220481A1, “Method for Determining Sensitivity to 2,2'-Dithio-bis-Ethane Sulfonate” (Lantern Pharma Inc., priority 2020, published 2023)

Assays:
[1] = test system: nuclear factor erythroid 2-related factor 2 (Nrf2); assay: Induction of nuclear expression of Nrf2 in NGF-differentiated PC12 cells, western blotting; type: cell-based, rat; conditions: PC12 neuron-like cells
Procedure: PC12 cells were suspended in DMEM containing 7.5% inactivated fetal bovine serum and 7.5% inactivated horse serum. After seeding onto a type I collagen-coated 100 mm culture dish, these cells were incubated for 7 days in the presence of 100 ng/mL NGF for priming. Culture medium was then replaced with Neurobasal™ medium supplemented with N-2 supplement and 2 mM glutamine containing NGF 30 ng/mL, and cells were incubated again for 3 days for differentiation into neuron-like cells. Next, these cells were treated with 2,2′-dithio-bis-ethane sulfonate 6 mM for 1, 2, 4 and 8 hours, or with a known Nrf2 activator, tert-butylhydroquinone (t-BHQ) 30 μM for 3 hours. Nuclear proteins were then extracted from the cells for detection of nuclear expression of Nrf2 by western blotting.

[2] = test system: Non-small cell lung cancer cell line HCC827; assay: Gene expression level changes by whole transcriptome profiling (RNAseq) in HCC827 cells; type: cell-based; conditions: 2 h treatment, 1 mM and 15 mM, versus untreated control
Text: Another embodiment includes a method for treating or determining the sensitivity of non-small cell cancer to a 2,2′-dithio-bis-ethane sulfonate treatment by assessing the level of NRF2 (SEQ ID NO: 1) expression and at least one gene selected from the group consisting of: NQO1 (SEQ ID NO: 2), PHGDH (SEQ ID NO: 3), HMOX1 (SEQ ID NO: 4), SLC7A11 (SEQ ID NO: 5), SRXN1 (SEQ ID NO: 6), SOX2(SEQ ID NO: 7), GPX2 (SEQ ID NO: 8), GPX3 (SEQ ID NO: 9), and GPX7(SEQ ID NO: 10). For illustration, non-small cell lung cancer cell line HCC827 was treated for 2 h with 2,2′-dithio-bis-ethane sulfonate alone at concentrations of 1 mM and 15 mM and gene expression level changes were measured by whole transcriptome profiling using RNAseq. A control sample with no treatment for the same duration was used as the baseline gene expression level. A greater than 1.5 to 2-fold expression level change can be indicative of 2, 2′-dithio-bis-ethane sulfonate sensitivity.
Non-small cell lung cancer cell line HCC827 was treated for 2 h with disodium 2,2′-dithio-bis-ethane sulfonate alone at concentrations of 1 mM and 15 mM and gene expression level changes were measured by whole transcriptome profiling using RNAseq. A control sample with no treatment for the same duration was used as the baseline gene expression level. […]

Structure (SMILES) | time at which nuclear expression of Nrf2 started after the start of treatment ([1]; 6 mM) | time until which apparent expression of Nrf2 persisted after the start of treatment ([1]; 6 mM) | induction of nuclear expression of Nrf2 ([1]; 6 mM, 1, 2, 4 and 8 hours) | gene expression level change of NRF2 biomarker genes (NQO1, PHGDH, HMOX1, SLC7A11, SRXN1, SOX2, GPX2, GPX3, GPX7) [2] | induction of nuclear expression of Nrf2 ([1]; 30 μM, 3 hours)
O=S(=O)([O-])CCSSCCS(=O)(=O)[O-].[Na+].[Na+] [2,2′-dithio-bis-ethane sulfonate, disodium 2,2′-dithio-bis-ethane sulfonate] | 1 h | 8 h | induction of nuclear expression of Nrf2 | nine genes are upregulated | –
CC(C)(C)c1cc(O)ccc1O [t-BHQ, tert-butylhydroquinone, reference compound] | – | – | – | – | induction of nuclear expression of Nrf2
